In patent EP3530661A1, “METHOD AND KIT FOR ISOTOPE-LABELLING OF A FOLATE-CONTAINING BIOLOGICAL SAMPLE FOR MASS SPECTROMETRY” (Medizinische Universität Graz, priority 2018, dated 2019):

What was measured:
[1] = system: E. coli K12; settings: 10 µM
Procedure: 50 mL LB-Miller medium was inoculated from an overnight culture of E. coli K12 to an OD600 of 0.1 and grown at 37 °C in a 500 mL flask shaking at 300 rpm. OD was measured at 0, 60, 90 min and immediately before harvesting. After reaching an OD of 0.4, trimethoprim was added to the treatment group (5 biological replicates) (0.15 mL of a 1 mg/mL stock solution in methanol; target concentration 10 µM) and the same volume of methanol was added to the control group (5 biological replicates). […] The supernatant was removed.
(§1) Stabilisation by reductive alkylation according to the present invention: The cells were immediately resuspended in the stabilising liquid of 0.5 mL ice cold 80 % methanol containing 30 mM NaCNBD3, 0.2 % Formaldehyde-^13C, d2 and 0.1 % acetic acid by pipetting. Samples were incubated on ice for 60 min for the stabilisation of the folate species naturally present in the cells to continue.
Samples were then transferred to microcentrifuge tubes and centrifuged at 16,000 g for 1 min. Supernatants were transferred to a new tube and the pellet was resuspended in 0.5 mL ice cold 80 % methanol, 0.1 % acetic acid and incubated in sonic bath for 15 min. After sonication, the suspension was centrifuged at 16,000 g for 3 min and the supernatant was combined with the previous supernatant. An aliquot of 50 µL was subjected to MS analysis according to Example 2 (not concentrated sample). The remaining 950 µL were dried in a rotary evaporator and resuspended by sonication in 50 µL 80 % methanol, 0.1 % acetic acid for 15 min. Samples were centrifuged at 16,000 g for 3 min and the supernatant was analysed in MS according to Example 2 (concentrated sample).

[2] = system: HepG2 cells; assay: Methotrexate inhibition experiment in HepG2 cells, LC-MS of folate pools and C1 metabolites; type: cell-based, Human; settings: 20 µM, 16 h
Procedure: Inhibitors of the folate cycle are widely employed in chemotherapeutic treatment of cancer (Gonen et al.). Human liver cancer cell line HepG2 was therefore treated with methotrexate, which inhibits DHFR as trimethoprim does in bacteria: • HepG2 cells were acquired from ATCC (ATCC® HB-8065™) and grown in T75 flasks in RPMI1640 (Gibco, Thermo Fisher Scientific, Switzerland) containing 2 mM Glutamine, 2 g/L glucose and 10 % FBS. 1 mg Methotrexate hydrate (Sigma Aldrich, Buchs SG, Switzerland) was dissolved in 10 µL 1 M sodium hydroxide and diluted with phosphate buffered saline to 1 mL and sterile filtered (2.2 mM Stock solution). At 80 % cell confluence, 20 µM Methotrexate was added to the treatment group (180 µL stock solution per 20 mL medium). 180 µL of phosphate buffered saline containing 1 % (v/v) 1 M sodium hydroxide was added to the control group. 16 h post treatment, cells were harvested by trypsinization and centrifuged at 4 °C and 400 g for 5 min. The supernatant was removed and the cell pellet was briefly washed with 1 mL PBS.
as §1, with “cell pellet was then” for “cells were immediately”, “in” for “in the stabilising liquid of”, “methanol,” for “methanol”, “Formaldehyde-13C,” for “Formaldehyde-^13C,”
Subsequent steps were carried out as described for E.coli in Example 8.

[3] = Stability of native folate species in solution (method of Lu et al.), repeated LC-MS injection over 96 h
[4] = absence of excess formaldehyde, non-alkaline pH (Strandler et al.); cited from earlier work
[5] = 30 min, vs control, p < 0.001, Fig. 7C
[6] = 50:50 methanol:water, 0.1% ascorbic acid, 20 mM ammonium acetate, pH = 6.2, 4 °C

## COc1cc(Cc2cnc(N)nc2N)cc(OC)c1OC [trimethoprim]
[1]; 30 min, most pronounced for THF and 5,10-methenyl THF, Fig. 7B
  domino effect (increase of reduced folates with low glutamation number, n = 1-2): could be observed
[1]; 30 min, vs control
  SAM to S-adenosyhomocysteine (SAH) ratio: not altered
[1]; 30 min, vs control, Fig. 7A
  folates with oxidized pteridine ring (DHF, FA): marked increase
  poly-glutamated species with a reduced ring: depleted
[1]; [5]
  AICAR: significantly enriched
  thymidine: significantly downregulated
[1]; 30 min after adding, control group 0.71
  mean OD600: 0.63

## CN(Cc1cnc2nc(N)nc(N)c2n1)c1ccc(C(=O)N[C@@H](CCC(=O)O)C(=O)O)cc1 [methotrexate, Methotrexate hydrate]
[2]
  domino effect: No domino effect was observed
[2]; vs control
  AICAR: upregulated
  SAH: reduced significantly
  SAM: reduced significantly
  SAM to SAH ratio: reduced significantly
  inosine monophosphate: upregulated
  levels of thymidine: did not change
[2]; vs control, Fig. 8B
  serine: significantly reduced
[2]; vs control, most of the reduced folates, Fig. 8A
  reduced folates: significantly reduced
[2]; vs control, with the exception of DHF-Glu2, Fig. 8A
  oxidized pteridines: no significant increase

## Nc1nc2c(c(=O)[nH]1)N=C(CNc1ccc(C(=O)N[C@@H](CCC(=O)O)C(=O)O)cc1)CN2 [DHF, dihydrofolic acid]
[3]; 0.1% ascorbic acid, pH = 6.2, 4 °C
  oxidation upon addition of ascorbic acid: to some extent

## Nc1nc2c(c(=O)[nH]1)[N+]1=CN(c3ccc(C(=O)NC(CCC(=O)O)C(=O)O)cc3)CC1CN2 (stereo not shown) [5,10-methenyl THF]
[3]; [6]
  half life (degradation to 5- or 10-formyl THF): less than 3 h
[3]; chromatographic conditions pH 9.2, 30 °C
  signal at the retention time of 10 min relative to that obtained by flow injection: 11 % (AUC)

## Nc1nc2c(c(=O)[nH]1)N1CN(c3ccc(C(=O)NC(CCC(=O)O)C(=O)O)cc3)CC1CN2 (stereo not shown) [5,10-methylen folate, 5,10-methylene THF]
[4]
  dissociation to formaldehyde and THF: dissociate rapidly
[3]; [6]
  half life: below 30 min
